Values after ≈ are worked out from the molar mass of the structure shown.
What was measured:
[1] = Half life in cynomolgus monkey at 2.03 mg/kg; assay type: ADME, organism-based, Macaca fascicularis; settings: in vivo
[2] = Volume of distribution at steady state in rabbit at 0.5 mg/kg; assay type: ADME, organism-based, Oryctolagus cuniculus; settings: in vivo, read-out: Vdss
[3] = Total AUC in cynomolgus monkey at 2.03 mg/kg; assay type: ADME, organism-based, Macaca fascicularis; set-up: dose 2.03 mg/kg, time AUCmax; settings: in vivo
[4] = physchem; settings: phosphate buffer, pH 6.5
[5] = Half life in rabbit at 0.5 mg/kg; assay type: ADME, organism-based, Oryctolagus cuniculus; settings: in vivo
[6] = Total AUC in rabbit at 0.5 mg/kg; assay type: ADME, organism-based, Oryctolagus cuniculus; set-up: dose 0.5 mg/kg, time AUCmax; settings: in vivo
[7] = Clearance in dog at 4.75 mg/kg; assay type: ADME, organism-based, Canis lupus familiaris; settings: in vivo
[8] = Chemical stability of the compound in Tris buffer at pH 8 at 37 degC after 90 days by HPLC method; assay type: physicochemical; settings: read-out: Stability
[9] = Clearance in cynomolgus monkey at 2.03 mg/kg; assay type: ADME, organism-based, Macaca fascicularis; settings: in vivo
[10] = Base dissociation constant, pKa of the compound; assay type: physicochemical
[11] = Half life in dog at 4.75 mg/kg; assay type: ADME, organism-based, Canis lupus familiaris; settings: in vivo
[12] = Chemical stability of the compound in Tris buffer at pH 8 at 25 degC after 90 days by HPLC method; assay type: physicochemical; settings: read-out: Stability
[13] = in vitro; settings: rat, liver microsomes
[14] = Clearance in rabbit at 0.5 mg/kg; assay type: ADME, organism-based, Oryctolagus cuniculus; settings: in vivo
[15] = Solubility of the compound in phosphate buffer at pH 7.4; assay type: physicochemical
[16] = Aqueous solubility of the compound at pH 6.7; assay type: physicochemical; settings: aqueous medium
[17] = in vitro; settings: human, liver microsomes
[18] = Chemical stability of the compound in phosphate buffer at pH 6.5 at 25 degC after 90 days by HPLC method; assay type: physicochemical; settings: read-out: Stability
[19] = Total AUC in rat at 0.5 mg/kg; assay type: ADME, organism-based; set-up: dose 0.5 mg/kg, time AUCmax; settings: in vivo
[20] = in vivo; settings: rat, iv
[21] = Volume of distribution at steady state in dog at 4.75 mg/kg; assay type: ADME, organism-based, Canis lupus familiaris; settings: in vivo, read-out: Vdss
[22] = Chemical stability of the compound in phosphate buffer at pH 7.4 at 50 degC after 90 days by HPLC method; assay type: physicochemical; settings: read-out: Stability
[23] = Aqueous solubility of the compound at pH 8.3; assay type: physicochemical; settings: aqueous medium
[24] = Chemical stability of the compound in phosphate buffer at pH 6.5 at 37 degC after 90 days by HPLC method; assay type: physicochemical; settings: read-out: Stability
[25] = Aqueous solubility of the compound at pH 8.5; assay type: physicochemical; settings: aqueous medium
[26] = Volume of distribution at steady state in rat at 0.5 mg/kg; assay type: ADME, organism-based; settings: in vivo, read-out: Vdss
[27] = Half life in dog liver microsomes; assay type: ADME, Canis lupus familiaris, microsome
[28] = Lipophilicity, log D of the compound by HPLC method; assay type: physicochemical
[29] = Clearance in rat at 0.5 mg/kg; assay type: ADME, organism-based; settings: in vivo
[30] = Chemical stability of the compound in Tris buffer at pH 8 at 50 degC after 90 days by HPLC method; assay type: physicochemical; settings: read-out: Stability
[31] = Volume of distribution at steady state in cynomolgus monkey at 2.03 mg/kg; assay type: ADME, organism-based, Macaca fascicularis; settings: in vivo, read-out: Vdss
[32] = Total AUC in dog at 4.75 mg/kg; assay type: ADME, organism-based, Canis lupus familiaris; set-up: dose 4.75 mg/kg, time AUCmax; settings: in vivo
[33] = Chemical stability of the compound in phosphate buffer at pH 7.4 at 25 degC after 90 days by HPLC method; assay type: physicochemical; settings: read-out: Stability
[34] = Mean residence time in rabbit at 0.5 mg/kg; assay type: ADME, organism-based, Oryctolagus cuniculus; settings: in vivo
[35] = Mean residence time in cynomolgus monkey at 2.03 mg/kg; assay type: ADME, organism-based, Macaca fascicularis; settings: in vivo
[36] = Half life in rat at 0.5 mg/kg; assay type: ADME, organism-based; settings: in vivo
[37] = Solubility of the compound in Tris buffer at pH 8; assay type: physicochemical
[38] = Chemical stability of the compound in phosphate buffer at pH 6.5 at 50 degC after 90 days by HPLC method; assay type: physicochemical; settings: read-out: Stability
[39] = Acid dissociation constant, pKa of the compound; assay type: physicochemical
[40] = in vivo; settings: rat, iv; remark: listed apart in the source
[41] = Mean residence time in rat at 0.5 mg/kg; assay type: ADME, organism-based; settings: in vivo
[42] = in vivo; settings: rat, iv; remark: listed apart in the source
[43] = in vivo; settings: rat, iv; remark: listed apart in the source
[44] = Chemical stability of the compound in phosphate buffer at pH 7.4 at 37 degC after 90 days by HPLC method; assay type: physicochemical; settings: read-out: Stability

- half-life [1]: 46.8 min
- Vd [2]: 0.71 L/kg
- AUC [3]: 1.59 µM·h
- solubility at 24 h [4]: 880 µg/mL (≈ 1340 µM)
- half-life [5]: 36 min
- AUC [6]: 0.27 µM·h
- clearance [7]: 15 mL/min/kg
- remaining at […] [8]: 99.7%
- clearance [9]: 31 mL/min/kg
- pKa [10]: 4.7
- half-life [11]: 63 min
- remaining at […] [12]: 99%
- half-life [13]: 59 min
- clearance [14]: 43 mL/min/kg
- solubility [15]: 1500 µg/mL (≈ 2280 µM)
- solubility [16]: 260 µg/mL (≈ 394 µM)
- half-life [17]: 108 to 120 min
- remaining at […] [18]: 99.9%
- AUC [19]: 0.441 µM·h
- clearance [20]: 16 mL/min/kg
- Vd [21]: 1.02 L/kg
- remaining at […] [22]: 94.6%
- solubility [23]: > 25000 µg/mL
- remaining at […] [24]: 99.8%
- solubility [25]: > 100000 µg/mL
- Vd [26]: 0.32 L/kg
- half-life [27]: 120 min
- logD [28]: 1.4
- clearance [29]: 31 mL/min/kg
- remaining at […] [30]: 94%
- Vd [31]: 1.16 L/kg
- AUC [32]: 7.76 µM·h
- remaining at […] [33]: 100%
- MRT [34]: < 60 min
- MRT [35]: < 60 min
- half-life [36]: 13.2 min
- solubility [37]: 11000 µg/mL (≈ 16700 µM)
- remaining at […] [38]: 95.4%
- pKa [39]: 4.1
- half-life [40]: 52.8 min
- MRT [41]: < 60 min
- AUC [42]: 0.309 µM·h
- Vd [43]: 0.75 L/kg
- remaining at […] [44]: 99%
SMILES: CN1CCN(c2cccc3c2CCN(C(=O)/C=C/c2c(-n4cnnn4)ccc(Cl)c2F)[C@@H]3C(=O)Nc2ccc(C(=O)O)cc2)C(=O)C1 [BMS-962212]

— ChEMBL document CHEMBL4028883 (J Med Chem, 2017)
